# Columns and labels:
# Experiment in all cases: MIC, standard microdilution
# [1] = test system: St. pneumoniae SL199T; assay type: cell-based, Streptococcus pneumoniae; details: Streptococcus pneumoniae, read-out: minimum inhibitory concentration (MIC)
# Outline: (§1)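 Compounds are serially diluted and tested against aerobically growing bacteria in a microdilution format. The lowest inhibitory concentration is taken as MIC under the NCCLS protocol.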
# [2] = test system: St. pneumoniae 1/4; assay type: cell-based, Streptococcus pneumoniae; details: Streptococcus pneumoniae, read-out: minimum inhibitory concentration (MIC)
# Outline: as §1
# [3] = test system: St. pneumoniae 12288; assay type: cell-based, Streptococcus pneumoniae; details: Streptococcus pneumoniae, read-out: minimum inhibitory concentration (MIC)
# Outline: as §1
# [4] = test system: St. pneumoniae 1/1; assay type: cell-based, Streptococcus pneumoniae; details: Streptococcus pneumoniae, read-out: minimum inhibitory concentration (MIC)
# Outline: as §1
# [5] = test system: S. aureus ATCC29213; assay type: cell-based, Staphylococcus aureus; details: Staphylococcus aureus, read-out: minimum inhibitory concentration (MIC)
# Outline: as §1
# [6] = test system: S. aureus 1086; assay type: cell-based, Staphylococcus aureus; details: Staphylococcus aureus, read-out: minimum inhibitory concentration (MIC)
# Outline: as §1
# [7] = test system: S. aureus 745; assay type: cell-based, Staphylococcus aureus; details: Staphylococcus aureus, read-out: minimum inhibitory concentration (MIC)
# Outline: as §1
# [8] = test system: P. aeruginosa ATCC27853 (+Ery. 32 μg/ml); assay type: cell-based
# Outline: as §1
# [9] = test system: E. coli ATCC25922; assay type: cell-based; details: Escherichia coli, read-out: minimum inhibitory concentration (MIC)
# Outline: as §1
MIC [1],MIC [2],MIC [3],MIC [4],MIC [5],MIC [6],MIC [7],minimum inhibitory concentration (MIC) [8],MIC [9],SMILES
2 µg/mL,0.25 µg/mL,8 µg/mL,≤ 0.12 µg/mL,≤ 0.12 µg/mL,≤ 0.12 µg/mL,> 16 µg/mL,>16 µg/mL,> 16 µg/mL,"CC[C@H]1OC(=O)[C@H](C)C(=O)[C@H](C)[C@@H](O[C@@H]2O[C@H](C)C[C@H](N(C)C)[C@H]2O)[C@](C)(OC)C[C@@H](C)C(=O)[C@H](C)[C@H]2[C@H](SCCCc3ccccn3)C(=O)O[C@@]21C [Compound I-10, (3S,3aR,4R,6R,8R,9R,10R,12R,15R,15aS)-15-Ethyloctahydro-8-methoxy-4,6,8,10,12,15a-hexamethyl-3-[[3-(2-pyridinyl)propyl]thio]-9-[[3,4,6-trideoxy-3-(dimethylamino)-β-D-xylo-hexopyranosyl]oxy]-2H-furo[2,3-c]oxacyclotetradecin-2,5,11,13(3H,6H,12H)-tetrone]"
2 µg/mL,≤ 0.12 µg/mL,2 µg/mL,≤ 0.12 µg/mL,0.25 µg/mL,0.25 µg/mL,> 16 µg/mL,>16 µg/mL,> 16 µg/mL,"CC[C@H]1OC(=O)[C@H](C)C(=O)[C@H](C)[C@@H](O[C@@H]2O[C@H](C)C[C@H](N(C)C)[C@H]2O)[C@](C)(OC)C[C@@H](C)C(=O)[C@H](C)[C@H]2[C@H](SCCn3cnc(-c4cccnc4)c3)C(=O)O[C@@]21C [Compound I-20, (3S,3aR,4R,6R,8R,9R,10R,12R,15R,15aS)-15-Ethyloctahydro-8-methoxy-4,6,8,10,12,15a-hexamethyl-3-[[2-[4-(3-pyridinyl)-1H-imidazol-1-yl]ethyl]thio]-9-[[3,4,6-trideoxy-3-(dimethylamino)-β-D-xylo-hexopyranosyl]oxy]-2H-furo[2,3-c]oxacyclotetradecin-2,5,11,13(3H,6H,12H)-tetrone]"
8 µg/mL,> 16 µg/mL,> 16 µg/mL,≤ 0.12 µg/mL,0.25 µg/mL,0.25 µg/mL,> 16 µg/mL,>16 µg/mL,> 16 µg/mL,"CC[C@H]1OC(=O)[C@H](C)C(=O)[C@H](C)[C@@H](O[C@@H]2O[C@H](C)C[C@H](N(C)C)[C@H]2O)[C@](C)(OC)C[C@@H](C)C(=O)[C@H](C)[C@H]2[C@H](SCCn3cncn3)C(=O)O[C@@]21C [Compound I-21, (3S,3aR,4R,6R,8R,9R,10R,12R,15R,15aS)-15-Ethyloctahydro-8-methoxy-4,6,8,10,12,15a-hexamethyl-3-[[2-[1H-1,2,4-triazol-1-yl]ethyl]thio]-9-[[3,4,6-trideoxy-3-(dimethylamino)-β-D-xylo-hexopyranosyl]oxy]-2H-furo[2,3-c]oxacyclotetradecin-2,5,11,13(3H,6H,12H)-tetrone]"

# Reference: patent US6740642B2, “Macrolides with antibacterial activity” (BAsilea Parmaceutica AG, priority 2000, dated 2004)
